Like-named read-outs stand apart in the source and are kept apart here.
Key:
neutrophils = details: cited from earlier work; for neutrophil apoptosis: 100 ng/mL
healthy rats = details: 500 ng intra-tracheally; within 5 hours; versus saline-treated control rats; cited from earlier work
[1] = test system: human peripheral blood mononuclear cell (PBMC) derived monocytes; assay: Endotoxin-induced TNF production in monocyte/fibroblast cultures (ELISA); format: cell-based; details: LPS 1 ug/ml, FIG. 5
Experimental: Hydroxychloroquine (Sigma Aldrich) was diluted at the concentrations indicated. Levels of tumor necrosis factor (TNF) were assessed by ELISA.

Row | Molecule | neutrophil apoptosis (neutrophils; at 4-8 h) | neutrophil apoptosis (neutrophils; at 24 h) | levels of IL-8 (neutrophils; PMN cultured for 24 h) | lung lavage neutrophils (healthy rats) | lung leak (healthy rats) | lung myeloperoxidase (MPO) activity (healthy rats) | production of TNF-alpha from macrophages [1]
1 | TNF-alpha | increased | markedly suppressed | markedly increased | substantially higher | substantially higher | substantially higher | 
2 | CCN(CCO)CCCC(C)Nc1ccnc2cc(Cl)ccc12 (stereo not shown) [hydroxychloroquine] |  |  |  |  |  |  | suppressed production of TNF-alpha

Source: patent US20230127499A1, “PEPTIDES AND ADJUVANTS FOR AU[…] […] FOR CORONAVIRUS” (FIGENE, LLC, priority 2020, published 2023)
